Measurements taken from BindingDB's records for doi:10.1111/cbdd.12379 (Quaid-I-Azam University, 2015).

Target: Urease [D459Y,K653P] (Canavalia ensiformis, UniProt P07374, D459Y/K653P)
Test: In vitro Urease Inhibition Assay
Settings: pH 8.2
Description: Urease inhibition activity was determined by indophenol method. […] Initially, urease enzyme and the test compound were incubated in the assay buffer for 30 minutes (in a linear reaction range) at 37 °C, 40 µL of phenol and alkali reagents were added to stop the reaction. […] All the assays were performed in triplicate.

Chain of Urease [D459Y,K653P] (P07374 whole entry D459Y/K653P): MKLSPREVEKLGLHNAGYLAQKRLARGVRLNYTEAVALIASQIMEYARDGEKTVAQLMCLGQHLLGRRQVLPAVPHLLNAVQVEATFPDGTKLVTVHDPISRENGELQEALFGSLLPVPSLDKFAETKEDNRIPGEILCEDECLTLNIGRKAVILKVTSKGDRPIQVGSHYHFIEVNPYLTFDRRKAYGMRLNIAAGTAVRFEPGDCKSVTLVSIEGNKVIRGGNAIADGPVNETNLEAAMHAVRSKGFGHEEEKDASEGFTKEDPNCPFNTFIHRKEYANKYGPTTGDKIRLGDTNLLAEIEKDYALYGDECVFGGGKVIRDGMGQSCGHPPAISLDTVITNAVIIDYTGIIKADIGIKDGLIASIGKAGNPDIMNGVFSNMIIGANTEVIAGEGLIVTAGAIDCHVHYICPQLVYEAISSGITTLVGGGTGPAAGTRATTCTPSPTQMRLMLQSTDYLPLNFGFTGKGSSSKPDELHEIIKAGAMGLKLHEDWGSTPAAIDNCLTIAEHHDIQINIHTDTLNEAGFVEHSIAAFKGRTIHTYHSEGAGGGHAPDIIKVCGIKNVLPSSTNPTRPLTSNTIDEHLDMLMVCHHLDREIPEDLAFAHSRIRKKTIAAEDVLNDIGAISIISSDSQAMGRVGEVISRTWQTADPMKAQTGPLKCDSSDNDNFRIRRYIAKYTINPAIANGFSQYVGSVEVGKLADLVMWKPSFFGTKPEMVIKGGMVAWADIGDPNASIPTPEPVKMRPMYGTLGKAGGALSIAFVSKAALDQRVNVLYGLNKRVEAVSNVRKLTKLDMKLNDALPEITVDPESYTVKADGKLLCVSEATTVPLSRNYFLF

Row | Compound | IC50
1 | NC(=S)N/N=C/Cc1cccnc1 [[(E)-[2-(pyridin-3-yl)ethylidene]amino]thiourea (3b)] | 2.41 µM
2 | COc1cc(C/C=N/NC(N)=S)ccc1OCc1ccccc1 [[(E)-{2-[4-(benzyloxy)-3-methoxyphenyl]ethylidene}amino]thiourea (3l)] | 75.1 µM
3 | NC(=S)N/N=C/Cc1ccco1 [[(E)-[2-(furan-2-yl)ethylidene]amino]thiourea (3f)] | 0.58 µM
4 | NC(=S)N/N=C/Cc1ccc(OCc2ccccc2)cc1 [[(E)-{2-[4-(benzyloxy)phenyl]ethylidene}amino]thiourea (3k)] | 3.64 µM
5 | NC(=S)N/N=C/Cc1ccc2ccc3cccc4ccc1c2c34 [[(E)-[2-(pyren-1-yl)ethylidene]amino]thiourea (3m)] | 4.84 µM
6 | NC(=S)N/N=C/Cc1ccccn1 [[(E)-[2-(pyridin-2-yl)ethylidene]amino]thiourea (3a)] | 2.65 µM
7 | Cc1ccc(C/C=N/NC(N)=S)o1 [[(E)-[2-(5-methylfuran-2-yl)ethylidene]amino]thiourea (3g)] | 3.23 µM
8 | NC(=S)N/N=C/Cc1ccccc1 [[(E)-(2-phenylethylidene)amino]thiourea (3j)] | 4.24 µM
